# According to US20060281767A1, “Triazoloypyrimidines” (BAYER CROPSCIENCE AKTIENGESELLSCHAFT, priority 2003, published 2006):
# System: Venturia inaequalis
# Experiment: Venturia test (apple)/protective
# Assay type: in vivo
# Conditions: protective spray, assessment 10 days after inoculation, 0% = control, 100% = no attack
# Source text: Venturia Test (apple)/protective • Solvent: 24.5 parts by weight of acetone • 24.5 parts by weight of dimethylacetamide • Emulsifier: 1 part by weight of alkyl-aryl-polyglycolether One part by weight of active substance is mixed with the specified quantities of solvent and emulsifier and the concentrate diluted with water to the desired concentration to prepare a suitable active substance preparation. To test the protective efficiency, young plants are sprayed with the active substance preparation in the specified amount. After drying the spray coating, the plants are inoculated with an aqueous conodia suspension of the apple scab pathogen Venturia inaequalis and are then left for 1 day at about 20° C. and 100% relative humidity in an incubation cabinet. The plants are then placed in a greenhouse at about 21° C. and a relative humidity of about 90%. The assessment is made 10 days after the inoculation. In this situation 0% means an efficiency corresponding to that of the control whereas an efficiency of 100% means that no attack is observed.
row,SMILES,efficiency [%]
1,CC(C)C(C)Sc1c(-c2ncncc2Cl)c(Cl)nc2ncnn12 (stereo not drawn) [Example 2],> 90

# System: not listed separately
# Experiment: LogP determination by HPLC (EEC-Directive 79/831 Annex V. A8)
# Assay type: physicochemical
# Conditions: HPLC with acetonitrile/0.1% aqueous phosphoric acid gradient, gradient method
row,chromatographic logP,SMILES
1,2.43,"CC(Oc1c(-c2ncncc2Cl)c(Cl)nc2ncnn12)C(F)(F)F (stereo not drawn) [Example 1, 5-chloro-6-(5-chloro-pyrimidin4-yl)-7-(2,2,2-trifluoro-isopropoxy)[1,2,4]triazolo[1,5-a]pyrimidine]"
2,3.07,CC(C)C(C)Sc1c(-c2ncncc2Cl)c(Cl)nc2ncnn12 (stereo not drawn) [Example 2]
3,1.97,"FC(F)(F)c1cccnc1-c1c(Cl)nc2ncnn2c1Cl [Example 5, 5,7-dichloro-6-(3-trifluoromethyl-pyridin-2-yl)-[1,2,4]triazolo[1,5-a]pyrimidine]"
4,1.43,"Clc1cncnc1-c1c(Cl)nc2ncnn2c1Cl [Example 6, 5,7-dichloro-6-(5-chloro-4-pyrimidinyl)[1,2,4]triazolo[1,5-a]pyrimidine]"
5,2.46,"Clc1ncsc1-c1c(Cl)nc2nc(C3CC3)nn2c1Cl [Example 9, 5,7-dichloro-2-cyclopropyl-6-(4-chloro-thiazol-5-yl)-[1,2,4]-triazolo[1,5-a]pyrimidine]"
6,-0.23,"Oc1nc2ncnn2c(O)c1-c1ncccc1C(F)(F)F [Example 10, 6-(3-trifluoromethyl-pyridin-2-yl)-[1,2,4]triazolo[1,5-a]pyrimidin-5,7-diole]"
7,-0.23,"Oc1nc2ncnn2c(O)c1-c1ncncc1Cl [Example 11, 6-(5-chloro-4-pyrimidinyl)[1,2,4]triazolo[1,5-a]pyrimidin-5,7-diole]"
8,0.1,"Oc1nc2nc(C3CC3)nn2c(O)c1-c1scnc1Cl [Example 12, 2-cyclopropyl-6-(4-chloro-thiazol-5-yl)-[1,2,4]triazolo[1,5-a]pyrimidin-5,7-diol]"
9,2.05,"COC(=O)C(C(=O)OC)c1ncccc1C(F)(F)F [Example 13, 2-[(3-trifluoromethyl)-pyridin-2-yl]-malonic acid dimethylester]"
10,1.33,"COC(=O)C(C(=O)OC)c1ncncc1Cl [Example 14, 2-(5-chloro-pyrimidin-4-yl)-malonic acid dimethylester]"
11,1.35,"Clc1cncnc1Cl [Example 15, 4,5-dichloropyrimidine]"
